PMC9610610 (Vaccines, 2022)
Where no end group is shown, it is not given here.

Target: HLA-DQ8 (Homo sapiens, UniProt P01909+P01920, A209T/A45G/C70Q/D89A/DUP78-78/E183D/E77G/F237L/G63E/H199R/I129T/K197E/L178F/L74F/L98V/Q57E/Q76R/S185I/S97I/T217I/T49S/V73L/Y58L)
Assay: biochemical
Type: binding

Sequence of HLA-DQ8 (P01920 33-261 A45G/Y58L/E77G/D89A/H199R/T217I limits assumed, other chains not shown): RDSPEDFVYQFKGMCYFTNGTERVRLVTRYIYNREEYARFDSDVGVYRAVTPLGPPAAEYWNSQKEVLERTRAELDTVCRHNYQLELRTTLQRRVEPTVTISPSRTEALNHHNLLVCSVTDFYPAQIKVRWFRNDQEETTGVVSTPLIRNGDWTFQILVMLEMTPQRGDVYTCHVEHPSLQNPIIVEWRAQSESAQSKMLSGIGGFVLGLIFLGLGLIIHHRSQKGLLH

ADVEVYRAVTPLGPPD [DQB45–57]
IC50: 100 nM
